26 molecules from the supplement of paper PMC12613149 can be followed below.

A short description of series [1]: reversed-phase LC retention time (C18, 15 min MeOH gradient); higher = more hydrophobic / later elution.
Series [2] can be described thus: collision cross section (TIMS, N2 drift gas) of the primary ion; higher = larger gas-phase ion size.
The mark [3] stands for this setting: ionization mode: ESI-, ion species: [M-H]-.
The mark [4] stands for this setting: ionization mode: ESI+, ion species: [M+H]+.
[5] abbreviates: ionization mode: ESI+, ion species: [M]+.

Take `CC(C)(c1cc(Br)c(O)c(Br)c1)c1cc(Br)c(O)c(Br)c1` [Tetrabromobisphenol A]: the “reversed-phase LC retention time” value in series [1] (setting [3]) was determined as 15.3 min. For the same molecule, the collision cross section in series [2] (setting [3]) is reported as 192.83 Å².

As to `CC(=O)Nc1c(I)c(NC(C)=O)c(I)c(C(=O)O)c1I` [Diatrizoate], in series [1] (setting [4]), the “reversed-phase LC retention time” value amounted to 4.56 min. The collision cross section in series [2] (setting [4]) was 179.28 Å².

For the molecule `COP(=S)(OC)Oc1c(Cl)cc(C)cc1Cl` [Toclofos-methyl], the “reversed-phase LC retention time” value in series [1] (setting [4]) was 15.8 min. The collision cross section in series [2] (setting [4]) stood at 151.78 Å².

Turning to `CN1CCN(C2=Nc3cc(Cl)ccc3Nc3ccccc32)CC1` [Clozapine], in series [1] (setting [4]), the “reversed-phase LC retention time” value stood at 11.6 min. In addition, in series [2] (setting [4]), the collision cross section is 179.65 Å².

Consider `CNCCC(Oc1cccc2ccccc12)c1cccs1` (stereo not drawn) [Duloxetine], for which the “reversed-phase LC retention time” value in series [1] (setting [4]) turned out to be 13 min. The molecule further returned a collision cross section in series [2] (setting [4]) of 171.35 Å².

As for `CC(C)C1C2CCC1c1c(NC(=O)c3cn(C)nc3C(F)F)cccc12` (stereo not drawn) [Isopyrazam], the “reversed-phase LC retention time” value is 16.2 min in series [1] (setting [4]) and 16.6 min in series [1] (setting [3]). Further, the collision cross section in series [2] (setting [4]) came out at 185.35 Å²; in series [2] (setting [3]), 191.1 Å².

Regarding `CC(COc1ccc(Oc2ccccc2)cc1)Oc1ccccn1` (stereo not drawn) [Pyriproxyfen], the “reversed-phase LC retention time” value in series [1] (setting [4]) is 16.9 min. In addition, in series [2] (setting [4]), the collision cross section is on record as 184.89 Å².

Turning to `CCCCCCCCCCOS(=O)(=O)O` [Decylsulfate], the “reversed-phase LC retention time” value in series [1] (setting [3]) stood at 14.9 min. In series [2] (setting [3]), this molecule showed a collision cross section of 159.61 Å².

For the molecule `COCC(C)N(C(=O)CS(=O)(=O)O)c1c(C)csc1C` (stereo not drawn) [Dimethenamid ESA], the “reversed-phase LC retention time” value in series [1] (setting [4]) and in series [1] (setting [3]) was 10.9 min each time. Besides, the collision cross section amounted to 166.05 Å² in series [2] (setting [4]) and 168.76 Å² in series [2] (setting [3]).

Consider `Cc1cccc(C)c1N` [2,6-Xylidine], for which the “reversed-phase LC retention time” value in series [1] (setting [4]) worked out at 17.9 min. This molecule also had a collision cross section in series [2] (setting [4]) of 117.81 Å².

As for `O=S(=O)(O)C(F)(F)C(F)(F)C(F)(F)C(F)(F)C(F)(F)F` [Perfluoropentanesulfonic acid], in series [1] (setting [3]), the “reversed-phase LC retention time” value was found to be 12.8 min. For the same molecule, the collision cross section in series [2] (setting [3]) was found to be 141.48 Å².

For `c1ccc2sc(NC3CCCCC3)nc2c1` [N-Cyclohexyl-2-benzothiazole-amine], the entries for the “reversed-phase LC retention time” value in series [1] (setting [4]) and in series [1] (setting [3]) were 14.1 min and 15.9 min, respectively. In addition, the collision cross section in series [2] (setting [4]) is on record as 155.21 Å²; in series [2] (setting [3]), 157 Å².

For `CC(=O)[C@@]1(O)CC[C@H]2[C@@H]3C[C@H](C)C4=CC(=O)CC[C@]4(C)[C@H]3CC[C@@]21C` [Medroxyprogesterone], the “reversed-phase LC retention time” value was found to be 15.1 min in series [1] (setting [4]) and 15.6 min in series [1] (setting [3]). The collision cross section in series [2] (setting [4]) was found to be 187.34 Å²; in series [2] (setting [3]) it was 188.11 Å².

For `CC12CC1(C)C(=O)N(c1cc(Cl)cc(Cl)c1)C2=O` (stereo not drawn) [Procymidone], the “reversed-phase LC retention time” value in series [1] (setting [3]) stood at 15 min. In series [2] (setting [3]), this molecule came in with a collision cross section of 172.16 Å².

As for `CC(C)(Oc1ccc(CCNC(=O)c2ccc(Cl)cc2)cc1)C(=O)O` [Bezafibrate], the “reversed-phase LC retention time” value in series [1] (setting [4]) was 14 min; in series [1] (setting [3]), 12.3 min. The values for the collision cross section in series [2] (setting [4]) and in series [2] (setting [3]) were 179.03 Å² and 181.16 Å², respectively.

For the molecule `Cc1ccc(O)c(-n2nc3ccccc3n2)c1` [Drometrizole], the “reversed-phase LC retention time” value amounted to 16.7 min in series [1] (setting [4]) and 17.1 min in series [1] (setting [3]). Besides, the collision cross section amounted to 148.63 Å² in series [2] (setting [4]) and 154.28 Å² in series [2] (setting [3]).

As for `COc1c(C)c2c(c(O)c1C/C=C(\C)CCC(=O)O)C(=O)OC2` [Mycophenolic acid], the “reversed-phase LC retention time” value stood at 13.4 min in series [1] (setting [4]) and 11.3 min in series [1] (setting [3]). Moreover, the collision cross section came out at 169.04 Å² in series [2] (setting [4]) and 175.76 Å² in series [2] (setting [3]).

With `C[P+](c1ccccc1)(c1ccccc1)c1ccccc1` [Methyltriphenylphosphonium], in series [1] (setting [5]), the “reversed-phase LC retention time” value amounted to 10.1 min. The molecule further displayed a collision cross section in series [2] (setting [5]) of 162.96 Å².

For `Cn1cnc2c1c(=O)[nH]c(=O)n2C` [Theobromine], the “reversed-phase LC retention time” value in series [1] (setting [4]) amounted to 5.81 min. Also, the collision cross section in series [2] (setting [4]) is 130.33 Å².

In the case of `CC(=O)CC(c1ccccc1)c1c(O)c2ccccc2oc1=O` (stereo not drawn) [Warfarin], the entries for the “reversed-phase LC retention time” value in series [1] (setting [4]) and in series [1] (setting [3]) were 14.1 min and 10.1 min, respectively. Further, the collision cross section in series [2] (setting [4]) was 168.14 Å²; in series [2] (setting [3]) it was 171.91 Å².

With `COP(=O)(OC)C(O)C(Cl)(Cl)Cl` (stereo not drawn) [Trichlorfon], in series [1] (setting [4]), the “reversed-phase LC retention time” value was found to be 9.07 min. In series [2] (setting [4]), the collision cross section is recorded as 138.18 Å².

As to `Oc1c(Br)cc(Cl)cc1Cc1cc(Cl)cc(Br)c1O` [Bromochlorophen], in series [1] (setting [3]), the “reversed-phase LC retention time” value came out at 16.3 min. The molecule further showed a collision cross section in series [2] (setting [3]) of 171.71 Å².

Regarding `CCC(C)OC(=O)N1CCCCC1CCO` (stereo not drawn) [Icaridin], the “reversed-phase LC retention time” value in series [1] (setting [4]) worked out at 13.6 min. The molecule also gave a collision cross section in series [2] (setting [4]) of 152.87 Å².

As to `CC(C)(C)CC(C)(C)c1cc(-n2nc3ccccc3n2)c(O)c(C(C)(C)c2ccccc2)c1` [UV-928], in series [1] (setting [4]), the “reversed-phase LC retention time” value was determined as 20.4 min. Further, the collision cross section in series [2] (setting [4]) worked out at 220.23 Å².

`Oc1cc(-c2ccc(Cl)cc2)ccc1Cl` [3-Hydroxy-4,4'-dichlorobiphenyl]: in series [1] (setting [3]), the “reversed-phase LC retention time” value was determined as 16.1 min. In series [2] (setting [3]), this molecule showed a collision cross section of 149.63 Å².

On to `CC1(C)CC(N(C=O)CCCCCCN(C=O)C2CC(C)(C)NC(C)(C)C2)CC(C)(C)N1` [Univul-4050H], for which the “reversed-phase LC retention time” value in series [1] (setting [4]) worked out at 7.4 min. The same molecule came in with a collision cross section in series [2] (setting [4]) of 226.35 Å².
